Reference: patent US20100267561A1, “HERBICIDAL PYRIDAZINONE DERIVATIVES” (priority 2007, published 2010)

Key:
Assay in all cases: Test B pre-/postemergence plant response
Type in all cases: in vivo
wild oat (Avena fatua) = tested on: wild oat (Avena fatua)
Summary of the method: (§1)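 Seeds were sown and sprayed preemergence, while plants at 2 to 18 cm (1- to 4-leaf stage) got postemergence sprays. Compounds were formulated in a non-phytotoxic solvent mixture with surfactant. After 13 to 15 days in a greenhouse, injury was rated visually against untreated controls, 0 (no effect) to 100 (complete control).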

corn (Zea mays) = tested on: corn (Zea mays)
Summary of the method: as §1

[1] = tested on: green foxtail (Setaria viridis)
Summary of the method: as §1

[2] = tested on: common ragweed (Ambrosia elation)
Summary of the method: as §1

[3] = tested on: Russian thistle (Salsola iberica); settings: Preemergence; for Russian Thistle plant response rating: scale 0 to 100
Summary of the method: as §1

kochia (Kochia scoparia) = settings: for Kochia plant response rating: postemergence, 0-100 scale
Summary of the method: as §1

[4] = tested on: catchweed bedstraw (Galium aparine); settings: Preemergence
Summary of the method: as §1

[5] = tested on: eastern black (E.B.) nightshade (Solanum ptycanthum); settings: Preemergence
Summary of the method: as §1

[6] = tested on: surinam grass (Brachiaria decumbens)
Summary of the method: as §1

[7] = tested on: yellow nutsedge (Cyperus esculentus)
Summary of the method: as §1

[8] = tested on: lambsquarters (Chenopodium album)
Summary of the method: as §1

[9] = tested on: morningglory (Ipomoea coccinea)
Summary of the method: as §1

[10] = tested on: cocklebur (Xanthium strumarium); settings: for Cocklebur plant response rating: 8 g ai/ha
Summary of the method: as §1

[11] = tested on: Italian ryegrass (Lolium multiflorum)
Summary of the method: as §1

[12] = 8 g ai/ha, postemergence, 0-100 scale
[13] = 16 g ai/ha, postemergence, 0-100 scale
[14] = Postemergence, 31 g ai/ha, scale 0 to 100
[15] = Postemergence, 62 g ai/ha, scale 0 to 100, 0 no effect, 100 complete control
[16] = Preemergence, 31 g ai/ha, scale 0 to 100 (0 no effect, 100 complete control)
[17] = Preemergence, 62 g ai/ha, 0 to 100 scale, 0 no effect, 100 complete control
[18] = Preemergence, 8 g ai/ha, scale 0 to 100
[19] = Preemergence, 16 g ai/ha, scale 0 to 100
[20] = Postemergence, 16 g ai/ha, scale 0 to 100
[21] = 31 g ai/ha, scale 0 to 100 (0 no effect, 100 complete control)
[22] = 62 g ai/ha, 0 to 100 scale, 0 no effect, 100 complete control

CCc1cc(-c2ccc(Br)cc2)nn1-c1c(O)cnn(C)c1=O [Compound 61]
Oat, Wild plant response rating (wild oat (Avena fatua); [12]): 100 | Oat, Wild plant response rating (wild oat (Avena fatua); [13]): 100 | Plant response rating, Oat, Wild (wild oat (Avena fatua); [14]): 100 | Plant response rating, Oat, Wild (wild oat (Avena fatua); [15]): 100 | Plant response rating, Oat, Wild (wild oat (Avena fatua); [16]): 95 | Plant response rating, Oat, Wild (wild oat (Avena fatua); [17]): 100 | Oat, Wild plant response rating (wild oat (Avena fatua); [18]): 40 | Oat, Wild plant response rating (wild oat (Avena fatua); [19]): 90 | Corn plant response rating (corn (Zea mays); [12]): 75 | Plant response rating, Corn (corn (Zea mays); [20]): 100 | Plant response rating, Corn (corn (Zea mays); [14]): 100 | Plant response rating, Corn (corn (Zea mays); [15]): 100 | Plant response rating, Corn (corn (Zea mays); [16]): 100 | Plant response rating, Corn (corn (Zea mays); [17]): 100 | Corn plant response rating (corn (Zea mays); [18]): 95 | Corn plant response rating (corn (Zea mays); [19]): 98 | Foxtail, Green plant response rating [1, 12]: 95 | Plant response rating, Foxtail, Green [1, 20]: 100 | Plant response rating, Foxtail, Green [1, 14]: 100 | Plant response rating, Foxtail, Green [1, 15]: 100 | Plant response rating, Foxtail, Green [1, 16]: 100 | Plant response rating, Foxtail, Green [1, 17]: 100 | Foxtail, Green plant response rating [1, 18]: 100 | Foxtail, Green plant response rating [1, 19]: 100 | Ragweed plant response rating [2, 12]: 0 | Ragweed plant response rating [2, 13]: 0 | Plant response rating, Ragweed [2, 14]: 0 | Plant response rating, Ragweed [2, 15]: 0 | Plant response rating, Ragweed [2, 16]: 0 | Plant response rating, Ragweed [2, 17]: 0 | Ragweed plant response rating [2, 18]: 0 | Ragweed plant response rating [2, 19]: 0 | Plant response rating, Russian Thistle [3, 21]: 0 | Plant response rating, Russian Thistle [3, 22]: 0 | Russian Thistle plant response rating ([3]; 8 g ai/ha): 0 | Russian Thistle plant response rating ([3]; 16 g ai/ha): 0 | Kochia plant response rating (kochia (Kochia scoparia); 8 g ai/ha): 0 | Kochia plant response rating (kochia (Kochia scoparia); 16 g ai/ha): 0 | Plant response rating, Kochia (kochia (Kochia scoparia); [14]): 35 | Plant response rating, Kochia (kochia (Kochia scoparia); [15]): 45 | Plant response rating, Kochia (kochia (Kochia scoparia); [16]): 0 | Plant response rating, Kochia (kochia (Kochia scoparia); [17]): 0 | Plant response rating, Galium [4, 21]: 0 | Plant response rating, Galium [4, 22]: 0 | Galium plant response rating ([4]; 8 g ai/ha, scale 0 to 100): 0 | Plant response rating, Nightshade, E. B. [5, 21]: 0 | Plant response rating, Nightshade, E. B. [5, 22]: 0 | Nightshade, E. B. plant response rating ([5]; 16 g ai/ha, scale 0 to 100): 0 | Surinam Grass plant response rating [6, 12]: 100 | Surinam Grass plant response rating [6, 13]: 100 | Plant response rating, Surinam Grass [6, 14]: 100 | Plant response rating, Surinam Grass [6, 15]: 100 | Plant response rating, Surinam Grass [6, 16]: 100 | Plant response rating, Surinam Grass [6, 17]: 100 | Surinam Grass plant response rating [6, 18]: 85 | Surinam Grass plant response rating [6, 19]: 100 | Nutsedge, Yellow plant response rating [7, 12]: 0 | Nutsedge, Yellow plant response rating [7, 13]: 0 | Plant response rating, Nutsedge, Yellow [7, 14]: 0 | Plant response rating, Nutsedge, Yellow [7, 15]: 0 | Plant response rating, Nutsedge, Yellow [7, 16]: 0 | Plant response rating, Nutsedge, Yellow [7, 17]: 0 | Nutsedge, Yellow plant response rating [7, 18]: 0 | Nutsedge, Yellow plant response rating [7, 19]: 0 | Lambsquarters plant response rating [8, 12]: 0 | Lambsquarters plant response rating [8, 13]: 0 | Plant response rating, Lambsquarters [8, 14]: 0 | Plant response rating, Lambsquarters [8, 15]: 0 | Plant response rating, Lambsquarters [8, 16]: 0 | Plant response rating, Lambsquarters [8, 17]: 0 | Lambsquarters plant response rating [8, 18]: 0 | Lambsquarters plant response rating [8, 19]: 0 | Morningglory plant response rating [9, 12]: 0 | Morningglory plant response rating [9, 13]: 0 | Plant response rating, Morningglory [9, 14]: 0 | Plant response rating, Morningglory [9, 15]: 0 | Plant response rating, Morningglory [9, 16]: 0 | Plant response rating, Morningglory [9, 17]: 0 | Morningglory plant response rating [9, 18]: 0 | Morningglory plant response rating [9, 19]: 0 | Cocklebur plant response rating ([10]; postemergence, 0-100 scale): 0 | Plant response rating, Cocklebur [10, 20]: 0 | Plant response rating, Cocklebur [10, 14]: 0 | Plant response rating, Cocklebur [10, 15]: 0 | Plant response rating, Cocklebur ([10]; Preemergence, 16 g ai/ha, scale 0 to 100 (0 no effect, 100 complete control)): 0 | Plant response rating, Cocklebur [10, 16]: 0 | Plant response rating, Cocklebur [10, 17]: 0 | Cocklebur plant response rating ([10]; Preemergence, scale 0 to 100): 0 | Ryegrass, Italian plant response rating [11, 12]: 100 | Ryegrass, Italian plant response rating [11, 13]: 100 | Plant response rating, Ryegrass, Italian [11, 14]: 100 | Plant response rating, Ryegrass, Italian [11, 15]: 100 | Plant response rating, Ryegrass, Italian [11, 16]: 100 | Plant response rating, Ryegrass, Italian [11, 17]: 100 | Ryegrass, Italian plant response rating [11, 18]: 85 | Ryegrass, Italian plant response rating [11, 19]: 100
